Laboratory results reported in patent publication US20250289785A1, “INDOLE DERIVATIVE, METHOD FOR PREPARING SAME, AND USE THEREOF” (MITOIMMUNE THERAPEUTICS INC., priority 2021, published 2025).

Experiments:
[1] = system: ARPE-19 cells; assay: Cell death protective effect in retinal epithelial cells against Erastin and RSL3 (LDH); type: cell-based, human; conditions: 24 h
Description: In order to identify the protective effect on retinal epithelial cells, ARPE-19 cells were divided into 96-well plates by 1×10^4 and cultured for 18 to 24 hours. The compounds of Examples were diluted to final concentrations of 0.03 and 0.3 μM, treated in each well, and incubated for 20 minutes. Erastin, and RSL3 were treated to have final concentrations of 10 μM, and 0.3 μM, respectively, and cultured for 24 hours. In order to identify the protective effect of each compound, the degree of LDH extracellular secretion was measured using cytotoxicity LDH assay kit [Dojindo; CK12]. Briefly, at the time when the treatment of the cells with Erastin, and RSL3 for 24 hours is completed, the supernatants containing the cells are taken by 70 μL and transferred to a new 96-well plate. The assay buffer included in the kit is added in an amount of 70 μL/well (the same amount as the sample) thereto, and then the plate is wrapped with a foil and the reaction is performed at room temperature for 15 minutes.

[2] = system: MLE-12 cells; assay: Cell death protective effect in lung epithelial cells against RSL3 (LDH); type: cell-based, rat; conditions: MLE-12, RSL3, 1 μM, 24 h
Description: In order to identify the protective effect on lung epithelial cells, MLE-12 cells were divided into 96-well plates by 5×10^3 and cultured for 18 to 24 hours. The compounds of Examples were diluted to final concentrations of 0.03 and 0. μM, treated in each well, and incubated for 20 minutes. RSL3 was treated to have final concentrations of 1. μM, respectively, and cultured for 24 hours. In order to identify the protective effect of each compound, the degree of LDH extracellular secretion was measured using cytotoxicity LDH assay kit [Dojindo; CK12]. Briefly, at the time when the treatment of the cells with RSL3 for 24 hours is completed, the supernatants containing the cells are taken by 70 μL and transferred to a new 96-well plate. The assay buffer included in the kit is added in an amount of 70 μL/well (the same amount as the sample) thereto, and then the plate is wrapped with a foil and the reaction is performed at room temperature for 15 minutes.

[3] = system: PC-12 cells; assay: Cell death protective effect in adrenal cells against Erastin, glutamate and RSL3 (LDH); type: cell-based, rat; conditions: 24 h
Description: In order to identify the protective effect on adrenal cells, PC-12 cells were divided into 96-well plates by 1×10^4 and cultured for 18 to 24 hours. […] Erastin, glutamate, and RSL3 were treated to have final concentrations of 1 μM, 10 mM, and 0.3 μM, respectively, and cultured for 24 hours. In order to identify the protective effect of each compound, the degree of LDH extracellular secretion was measured using cytotoxicity LDH assay kit [Dojindo; CK12]. Briefly, at the time when the treatment of the cells with Erastin, glutamate, and RSL3 for 24 hours is completed, the supernatants containing the cells are taken by 70 μL and transferred to a new 96-well plate. The assay buffer included in the kit is added in an amount of 70 μL/well (the same amount as the sample) thereto, and then the plate is wrapped with a foil and the reaction is performed at room temperature for 15 minutes.

[4] = system: NIH/3T3 cells; assay: Cell death protective effect in fibroblasts against Erastin, glutamate and RSL3 (LDH); type: cell-based, mouse; conditions: 24 h
Description: (§1) In order to identify the protective effect on fibroblasts, NIH/3T3 cells were divided into 96-well plates by 8×10^3 and cultured for 18 to 24 hours. The compounds of Examples were diluted to final concentrations of 0.1 and 1 μM, treated in each well, and incubated for 15 to 20 minutes. Erastin, glutamate, and RSL3 were treated to have final concentrations of 3 μM, 30 mM, and 3 μM, respectively, and cultured for 24 hours. In order to identify the protective effect of each compound, the degree of LDH extracellular secretion was measured using cytotoxicity LDH assay kit [Dojindo; CK12]. Briefly, at the time when the treatment of the cells with Erastin, glutamate, and RSL3 for 24 hours is completed, the supernatants containing the cells are taken by 70 μL and transferred to a new 96-well plate. The assay buffer included in the kit is added in an amount of 70 μL/well (the same amount as the sample) thereto, and then the plate is wrapped with a foil and the reaction is performed at room temperature for 15 minutes.

[5] = system: NRK-49F cells; assay: Cell death protective effect in renal fibroblasts against Erastin, glutamate and RSL3 (LDH); type: cell-based, rat; conditions: 24 h
Description: as §1, with “effect on renal fibroblasts, NRK-49F” for “effect on fibroblasts, NIH/3T3”, “renal fibroblasts, NRK-49F cells were” for “on fibroblasts, NIH/3T3 cells were”, “plates by 1×10^4 and cultured” for “plates by 8×10^3 and cultured”, “0.1 and 1. μM, treated” for “0.1 and 1 μM, treated”, “3 μM, 75 mM, and” for “3 μM, 30 mM, and”

[6] = ARPE-19, Erastin, 10 μM, compound 0.03 μM
[7] = ARPE-19, Erastin, 10 μM, compound 0.3 μM
[8] = ARPE-19, RSL3, 0.3 μM, compound 0.03 μM (first RSL3 column)
[9] = ARPE-19, RSL3, 0.3 μM, compound 0.03 μM (second RSL3 column)
[10] = PC-12, Erastin, 1 μM, compound 0.1 μM
[11] = PC-12, Erastin, 1 μM, compound 1.0 μM
[12] = PC-12, Glutamate, 10 mM, compound 0.1 μM
[13] = PC-12, Glutamate, 10 mM, compound 1.0 μM
[14] = PC-12, RSL3, 0.3 μM, compound 0.1 μM
[15] = PC-12, RSL3, 0.3 μM, compound 1.0 μM
[16] = NIH/3T3, Erastin, 3 μM, compound 0.1 μM
[17] = NIH/3T3, Erastin, 3 μM, compound 1.0 μM
[18] = NIH/3T3, Glutamate, 30 mM, compound 0.1 μM
[19] = NIH/3T3, Glutamate, 30 mM, compound 1.0 μM
[20] = NIH/3T3, RSL3, 3 μM, compound 0.1 μM
[21] = NIH/3T3, RSL3, 3 μM, compound 1.0 μM
[22] = Glutamate, 75 mM, compound 0.1 μM
[23] = Glutamate, 75 mM, compound 1.0 μM

SMILES | inhibition (%) [1, 6] [%] | inhibition (%) [1, 7] [%] | inhibition (%) [1, 8] [%] | inhibition (%) [1, 9] [%] | inhibition (%) ([2]; compound 0.03 μM) | inhibition (%) ([2]; compound 0.3 μM) | inhibition (%) [3, 10] [%] | inhibition (%) [3, 11] [%] | inhibition (%) [3, 12] [%] | inhibition (%) [3, 13] [%] | inhibition (%) [3, 14] [%] | inhibition (%) [3, 15] [%] | inhibition (%) [4, 16] [%] | inhibition (%) [4, 17] [%] | inhibition (%) [4, 18] [%] | inhibition (%) [4, 19] [%] | inhibition (%) [4, 20] [%] | inhibition (%) [4, 21] [%] | inhibition (%) ([5]; Erastin, 3 μM, compound 0.1 μM) | inhibition (%) ([5]; Erastin, 3 μM, compound 1.0 μM) | also measured
CCOCc1cc(NC2CCOCC2)c2c(c1)c(COC)c(-c1ccccc1)n2C [Example 29, 5-(ethoxymethyl)-3-(methoxymethyl)-1-methyl-2-phenyl-N-(tetrahydro-2H-pyran-4-yl)-1H-indol-7-amine] | 22 | 100 | 18 | 100 | 0 | 95 | 0 | 100 | 22 | 71 | 26 | 100 | 0 | 99 | 98 | 97 | 100 | 100 | 3 | 93 | inhibition (%) [5, 22]: 17%; inhibition (%) [5, 23]: 100%; inhibition (%) ([5]; RSL3, 3 μM, compound 0.1 μM): 0%; inhibition (%) ([5]; RSL3, 3 μM, compound 1.0 μM): 96%
COCCc1cc(NC2CCOCC2)c2[nH]c(-c3ccccc3)cc2c1 [Example 41, 5-(2-methoxyethyl)-2-phenyl-N-(tetrahydro-2H-pyran-4-yl)-1H-indol-7-amine] | 100 | 100 | 100 | 100 | 95 | 97 | 100 | 100 | 76 | 100 | 100 | 100 | 0 | 0 | 99 | 98 | 100 | 100 | 96 | 94 | inhibition (%) [5, 22]: 100%; inhibition (%) [5, 23]: 100%; inhibition (%) ([5]; RSL3, 3 μM, compound 0.1 μM): 97%; inhibition (%) ([5]; RSL3, 3 μM, compound 1.0 μM): 97%
CCOCc1cc(NC2CCOCC2)c2[nH]c(-c3ccccc3)c(-c3ncc[nH]3)c2c1 [Example 46, 5-(ethoxymethyl)-3-(1H-imidazol-2-yl)-2-phenyl-N-(tetrahydro-2H-pyran-4-yl)-1H-indole-7-amine] | 3 | 64 | 5 | 43 | 0 | 7 | 0 | 38 | 4 | 6 | 0 | 100 | 102 | 99 | 0 | 96 | 0 | 100 | 5 | 64 | inhibition (%) [5, 22]: 13%; inhibition (%) [5, 23]: 16%; inhibition (%) ([5]; RSL3, 3 μM, compound 0.1 μM): 0%; inhibition (%) ([5]; RSL3, 3 μM, compound 1.0 μM): 5%
